Source: patent publication US20080176787A1, “Parathyroid hormone analogues and methods of use” (priority 2005, published 2008)
Positions of bridges follow the written chain, without caps; N, C: chain ends. Residues, ends and D or L forms follow the SMILES beside them.

Experiments:
Toxicity, 12 mth monkey = assay type: in vivo; conditions: in vivo; Ostabolin C, 12 mth monkey
Description: (§1) A NoAEL was not established for the monkey. […] Ostabolin-C™ is at least 4-fold safer than PTH-(1-34).

monkey = assay: Toxicity, 12 mth monkey; assay type: in vivo
Description: as §1

[1] = system: Gonad intact young Cynomolgus monkeys; assay: 6-week daily study in gonad intact young cynomolgus monkeys: % cortical porosity; assay type: in vivo; conditions: Tibial Mid-Diaphysis, 6 weeks
Description: Comparative data regarding increase in cortical bone porosity in monkey subjects using Ostabolin C at a variety of doses and using the prior art PTHs 1-34 is shown below.

rats = assay: Rat oncogenicity study, 104 weeks subcutaneous; assay type: in vivo; conditions: 0.5, 5, 30, and 50 μg/kg/day SC
Experimental: Prior art PTHs cause osteosarcomas in animals if administered over a course of two years. The PTH peptides of the present invention, including Ostabolin-C™ and PTH 1-30, are administered subcutaneously to rats for 104 weeks at doses of 0.5, 5, 30, and 50 μg/kg/day. The test article is administered subcutaneously. […] This difference could be due to the different amino acids sequences and/or to the different signalling pathways activated by the PTH molecules.

[2] = Ostabolin-C Inhalation Powder (OCIP) Phase I pharmacokinetics; assay type: in vivo; conditions: female, human, blood
Experimental: A Phase I clinical study was undertaken using Ostabolin-C™ Inhalation Powder (OCIP) to establish an MTD in post-menopausal women, to compare its PK profile with Phase II sub-cutaneous doses, and to evaluate biological activity with cAMP and biomarkers of bone turnover. The OCIP was administered using the Nektar T-326 dry powder inhaler (DPI), which is well-accepted by osteoporosis patients in focus groups. An ascending dose tolerance was used. Each cohort was randomized and included 6 active patients and 2 placebo patients. The patients were post menopausal healthy females that were older than 40 years of age and had no known history of osteoporosis or other bone disease.
The primary measurements were taken at clinical laboratories where patient surveys were taken and the patient could describe any adverse events. Additionally the patients' vital signs were taken with Holter monitoring of EKGs and Spirometry. Pharmacokinetics, such as Ostabolin-C blood levels, PK parameters after a single dose and after 7 days of daily dosing were also measured. Pharmacodynamics were also monitored for changes in bone markers including P1NP, Osteocalcin, NTx, CTx, and urine cyclic AMP.

[3] = system: post-menopausal women with low bone mineral density; assay: Dose/weight cutoff subgroup analysis and modeling of Phase II 30 and 45 μg cohorts; assay type: in vivo, human; conditions: for Headache / HyperCa > 2.65 / HyperCa > 2.75 / N + H / Nausea: unit assumed
Experimental: The effect of the dose optimization strategy was evaluated by performing subgroup analyses using actual data from the 30 and 45 μg cohorts of the study (i.e. creation of a new subgroup by combining all patients below the weight cutoff from the 30 μg dose group with all patients above the weight cutoff from the 45 μg dose group, shown in the table below).
A variety of new subgroups were created out of the patients who participated in the Phase II clinical trial. The groups from Phase II are shown above, where each group received a single dose, either 7.5 μg, 15 μg, 30 μg, 45 μg, or placebo. The 30 μg and 45 μg dose groups were re-grouped, according to the weight of the patient, and over 100 new sub-groups were created. This approach of creating new sub-groups out of dosages which are relatively close to each other, is a novel way of conducting Phase II studies.
For the 105 patients who were originally given 30 or 45 μg, new groups were created by utilizing multiple weight cut-offs in increments of 0.5 kg. For example, one new group had the weight cut-off at 59 kg, meaning that every patient from the original low dose (30 μg) group who weighed less than 59 kg and every patient who weighed more than 59 kg from the original high dose (45 μg) group formed a new cohort. This new cohort represents a dose/weight cut-off of 59 kg, a group in which patients weighing less than 59 kg receive the low dose (30 μg) and patients weighing more than 59 kg receive the high dose (45 μg). Another example can be illustrated using a weight cutoff of 68 kg. Such a group would include all those patients who weigh less than 68 kg and who originally received the low dose (30 μg) as well as all those patients who weigh more than 68 kg and who originally received the high dose (45 μg). By using this method, over 100 separate cohorts were created by altering the dose/weight cut-off in increments of 0.5 kg. A summary of the data generated by these new dose/weight cut-off cohorts, using 68 kg and 59 kg as the dose/weight cut-off, is shown in the table below.
The table above illustrates the actual clinical profile obtained for two dose/weight cutoffs (59 kg which produces a higher exposure profile since more patients receive the higher dose and 68 kg in which more patients receive the lower dose). […] One problem with simple subgroup analysis is that endpoints with a small number of events can skew the observed profile because of large changes in incidence when one of these events moves from one side of the weight cutoff to the other. Therefore, the dose/weight cutoff methodology was applied systematically to the data from the 30 and 45 μg dose groups starting at the lowest weight patient in the study (corresponds to the 45 μg profile because everyone receives the high dose) and increasing the cutoff by 0.5 kg increments through 100 kg (corresponding to the 30 μg profile because everyone receives the low dose). The multiple cutoff profiles thus obtained when graphed can then smooth out the effect of individual events as illustrated for the effect on hypercalcemia. The effect of weight cutoff on clinical profile can then be modeled to eliminate the skewing effects of individual data points as illustrated in FIG. 37-40. This approach has been applied to primary and secondary endpoints in the study.
An important benefit of this modeling is that it is possible to project a clinical profile for a specific weight cutoff/dose exposure window with a high degree of accuracy since the effect of individual events is eliminated. The anticipated hypercalcemia and lumbar spine BMD profile for a 68 kg cutoff is illustrated in the table below, which compares the modeled hypercalcemia and lumbar spine BMD changes and the actual Phase II data for the 68 kg weight cutoff. It will also be possible to model the effects of even narrower exposure windows by using multiple dose cutoffs and different doses.

[4] = system: post-menopausal women with low bone mineral density; conditions: human, in vivo
Description: A four month Phase II clinical study was undertaken to investigate the safety, tolerability and efficacy of Ostabolin-C™ in post-menopausal women with low bone mineral density (BMD). […] The clinical protocol is a 16-week phase II randomized, double-blind, placebo-controlled, parallel group, dose finding study to investigate the safety, tolerability and efficacy of Ostabolin-C™ in post-menopausal women with low bone mineral density (BMD). In this study, 261 patients underwent four months of daily dosing of placebo and four active groups. The active groups included daily administration of Ostabolin-C™ in doses of 7.5, 15, 30, and 45 μg. Ostabolin-C™ is formulated as a clear, colorless liquid provided in pre-filled syringes and injected subcutaneously (SC). Subjects self-administer SC 0.1 mL injections of their assigned dose of Ostabolin-C™ 7.5, 15, 30, and 45 μg or placebo daily for 16 weeks in rotating quadrants of the abdomen. The subjects were post-menopausal women (for at least 5 years) with moderate osteoporosis.
The key endpoints for the study include change in mean BMD at the lumbar spine, as assessed by dual energy x-ray absorptiometry (DEXA), and measured by change from the Baseline visit. The Baseline visit is the first visit of the patient, before undergoing any treatment. Secondary efficacy endpoints include the following, as measured by change from Baseline visit:
DEXA: Bone formation and resorption markers: • Mean femoral neck BMD • Serum osteocalcin • Mean trochanter BMD • Serum amino terminal pro-peptide of type 1 pro-collagen (P1NP) • Mean total hip BMD • Mean radial BMD (distal and midshaft) • Bone specific alkaline phosphatase (BSAP) • Bone mineral content (BMC) • Serum C-telopeptide (CTx) • Bone area • Serum N-telopeptide (NTx)

## CC[C@H](C)[C@H](NC(=O)[C@H](CCC(=O)O)NC(=O)[C@H](CO)NC(=O)[C@@H](NC(=O)[C@@H](N)CO)C(C)C)C(=O)N[C@@H](CCC(N)=O)C(=O)N[C@@H](CC(C)C)C(=O)N[C@@H](CCSC)C(=O)N[C@@H](Cc1c[nH]cn1)C(=O)N[C@@H](CC(N)=O)C(=O)N[C@@H](CC(C)C)C(=O)NCC(=O)N[C@@H](CCCCN)C(=O)N[C@@H](Cc1c[nH]cn1)C(=O)N[C@@H](CC(C)C)C(=O)N[C@@H](CC(N)=O)C(=O)N[C@@H](CO)C(=O)N[C@@H](CCSC)C(=O)N[C@@H](CCC(=O)O)C(=O)N[C@@H](CCCN=C(N)N)C(=O)N[C@H](C(=O)N[C@H]1CCC(=O)NCCCC[C@@H](C(=O)N[C@@H](CC(C)C)C(=O)N[C@@H](CC(C)C)C(=O)N[C@@H](CCC(N)=O)C(=O)N[C@@H](CC(=O)O)C(=O)N[C@H](C(N)=O)C(C)C)NC(=O)[C@H](CCCN=C(N)N)NC(=O)[C@H](CC(C)C)NC(=O)[C@H](Cc2c[nH]c3ccccc23)NC1=O)C(C)C [Ostabolin-C, [Leu^27]cyclo[Glu^22-Lys^26]-PTH-(1-31)-NH2] (H-SVSEIQLMHNLGKHLNSMERVEWLRKLLQDV-NH2; lactam 22-26)
Toxicity, 12 mth monkey
  NOAEL at 12 mth: 2 µg/kg
monkey; 12 mth monkey
  fold less nephrotoxic than PTH-(1-34): >4-fold less
  hypercalaemic (DIFFERENCES column): Ostabolin-C not
monkey; Ostabolin C 0, 2, 10, 25 μg/kg, 12 mth monkey
  Bone hypertrophy: hypertrophy all
monkey; pre-clinical toxicity
  fold safer than PTH-(1-34): at least 4 fold
  nephrotoxicity: nephrotoxic only in monkeys
[1]; F, 10 μg/kg/day
  % Cortical Porosity: 3.2 ± 0.97%
[1]; F, 25 μg/kg/day
  % Cortical Porosity: 4.0 ± 1.25%
[1]; F, 80 μg/kg/day
  % Cortical Porosity: 10.6 ± 0.35%
[1]; M, 10 μg/kg/day
  % Cortical Porosity: 3.7 ± 0.70%
[1]; M, 25 μg/kg/day
  % Cortical Porosity: 5.8 ± 1.82%
[1]; M, 80 μg/kg/day
  % Cortical Porosity: 16.4 ± 7.14 %
rats
  incidence of osteosarcomas compared to prior art PTH peptides: lower incidences of osteosarcomas
[2]; subcutaneous, Day 1, normalized to SC 45 μg
  Cmax: 0.0747 ng/mL
[2]; subcutaneous, Day 1, normalized to SC 45 μg, read-out: AUC(0-4)
  AUC(0-t): 0.0412 ng·h/mL
[2]; Day 1, SC, averaged for all subjects
  Tmax: 13.2 min
[2]; Day 1, SC, averaged for all subjects, read-out: T½ (converted)
  half-life: 37.2 min
[3]; 4 months, weight cutoff of approximately 68 kg (FIG. 37)
  % of hypercalcemia: less than 15%
[3]; 59 kg cut
  Sitting HR: 4.1
  Headache: 20.6%
  HyperCa > 2.65: 22%
  HyperCa > 2.75: 6%
  N + H: 12.7%
  Nausea: 31.7%
[3]; 68 kg cut
  Sitting HR: 3.1
  Headache: 12.8%
  HyperCa > 2.65: 12.8%
  HyperCa > 2.75: 7.7%
  N + H: 10.6%
  Nausea: 31.9%
[3]; 68 kg cutoff, modeled
  HyperCa > 2.65: 14.8%
  HyperCa > 2.75: 7.6%
[4]
  Pts > 2.75 mmol/L (sustained): 0
